Legend:
K-Ras G13C = K-Ras G13C (Homo sapiens, UniProt P01116+P62937, G13C); test: Raf-Ras (FRET or MOA) binding assay: disruption of BRAF RBD interaction with K-Ras G13C in presence of Cyclophilin A; format: biochemical; conditions: read-out: IC50 in the Raf-Ras (FRET or MOA) binding assay re: K-Ras G13C
Experimental: As used herein, the term “linker” refers to a divalent organic moiety connecting a first moiety (e.g., a macrocyclic moiety) to a second moiety (e.g., a cross-linking group). […] Compound is present in plate wells as a 10-point 3-fold dilution series starting at a final concentration of 30 μM. After incubation at 25° C. for 3 hours, a mixture of Anti-His Eu-W1024 and anti-GST allophycocyanin is then added to assay sample wells at final concentrations of 10 nM and 50 nM, respectively, and the reaction incubated for an additional 1.5 hours. TR-FRET signal is read on a microplate reader (Ex 320 nm, Em 665/615 nm). Compounds that facilitate disruption of a Ras:RAF complex are identified as those eliciting a decrease in the TR-FRET ratio relative to DMSO control wells.
Disruption of B-Raf Ras-Binding Domain (BRAF RBD) Interaction with K-Ras by Compounds of the Invention (Also Called a FRET Assay or an MOA Assay)
Note—The following protocol describes a procedure for monitoring disruption of K-Ras G12C (GMP-PNP) binding to BRAF^RBD by a compound of the invention. This protocol may also be executed substituting other Ras proteins or nucleotides.
The purpose of this biochemical assay was to measure the ability of test compounds to facilitate ternary complex formation between a nucleotide-loaded K-Ras isoform and Cyclophilin A; the resulting ternary complex disrupts binding to a BRAF^RBD Construct, inhibiting K-Ras signaling through a RAF effector. Data was reported as IC50 values.
In assay buffer containing 25 mM HEPES pH 7.3, 0.002% Tween20, 0.1% BSA, 100 mM NaCl and 5 mM MgCl2, tagless Cyclophilin A, His6-K-Ras-GMPPNP, and GST-BRAF^RBD were combined in a 384-well assay plate at final concentrations of 25 μM, 12.5 nM and 50 nM, respectively. Compound was present in plate wells as a 10-point 3-fold dilution series starting at a final concentration of 30 μM. […] TR-FRET signal was read on a microplate reader (Ex 320 nm, Em 665/615 nm). […]

K-Ras G12C = biological target: T1, K-Ras G12C (Homo sapiens, UniProt P01116+P62937, G12C); test: pERK potency assay in NCI-H358 cells (AlphaLISA SureFire or In-Cell Western); format: cell-based; conditions: 4 hours incubation
T1 construct: endogenous in cells; host or cells: NCI-H358
T1 sequence (P01116 1-188 isoform P01116-2 G12C): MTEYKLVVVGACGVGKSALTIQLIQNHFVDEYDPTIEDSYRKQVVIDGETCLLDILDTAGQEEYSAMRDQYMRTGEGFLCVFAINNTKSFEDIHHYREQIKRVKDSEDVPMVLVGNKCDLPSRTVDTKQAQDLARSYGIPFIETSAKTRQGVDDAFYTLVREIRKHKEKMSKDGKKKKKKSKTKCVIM
T1 sequence (P62937 whole entry): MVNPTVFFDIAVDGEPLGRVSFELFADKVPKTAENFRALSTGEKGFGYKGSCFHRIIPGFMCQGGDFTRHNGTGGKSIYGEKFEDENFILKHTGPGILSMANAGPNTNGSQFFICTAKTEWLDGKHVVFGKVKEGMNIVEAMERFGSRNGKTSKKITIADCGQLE
Experimental: The purpose of this assay was to measure the ability of test compounds to inhibit K-Ras in cells. […] This procedure measures a decrease in cellular pERK in response to test compounds. The procedure described below in NCI-H358 cells is applicable to K-Ras G12C. […]
NCI-H358 cells were grown and maintained using media and procedures recommended by the ATCC. On the day prior to compound addition, cells were plated in 384-well cell culture plates (40 μl/well) and grown overnight in a 37° C., 5% CO2 incubator. Test compounds were prepared in 10, 3-fold dilutions in DMSO, with a high concentration of 10 mM. On the day of assay, 40 nL of test compound was added to each well of cell culture plate using an Echo550 liquid handler (LabCyte®). Concentrations of test compound were tested in duplicate. After compound addition, cells were incubated 4 hours at 37° C., 5% CO2. Following incubation, culture medium was removed and cells were washed once with phosphate buffered saline.
In some experiments, cellular pERK level was determined using the AlphaLISA SureFire Ultra p-ERK1/2 Assay Kit (PerkinElmer). Cells were lysed in 25 μL lysis buffer, with shaking at 600 RPM at room temperature. Lysate (10 μL) was transferred to a 384-well Opti-plate (PerkinElmer) and 5 μL acceptor mix was added. After a 2-hour incubation in the dark, 5 μL donor mix was added, the plate was sealed, and incubated 2 hours at room temperature. Signal was read on an Envision plate reader (PerkinElmer) using standard AlphaLISA settings. Analysis of raw data was carried out in Excel (Microsoft) and Prism (GraphPad). Signal was plotted vs. the decadal logarithm of compound concentration, and IC50 was determined by fitting a 4-parameter sigmoidal concentration response model.
In other experiments, cellular pERK was determined by In-Cell Western. Following compound treatment, cells were washed twice with 200 μL tris buffered saline (TBS) and fixed for 15 minutes with 150 μL 4% paraformaldehyde in TBS. Fixed cells were washed 4 times for 5 minutes with TBS containing 0.1% Triton X-100 (TBST) and then blocked with 100 μL Odyssey blocking buffer (LI-COR) for 60 minutes at room temperature. […] Cells were washed 4 times for 5 minutes with TBST. Secondary antibody (IR-800CW rabbit, LI-COR, diluted 1:800) and DNA stain DRAQ5 (LI-COR, diluted 1:2000) were added and incubated 1-2 hours at room temperature. Cells were washed 4 times for 5 minutes with TBST. Plates were scanned on a Li—COR Odyssey CLx Imager. Analysis of raw data was carried out in Excel (Microsoft) and Prism (GraphPad). Signal was plotted vs. the decadal logarithm of compound concentration, and IC50 was determined by fitting a 4-parameter sigmoidal concentration response model.

NCI-H358 (K-Ras G12C) = test: CellTiter-Glo cell viability assay, 5-day treatment, NCI-H358; format: cell-based; conditions: Homo sapiens, NCI-H358, 120 h
Text: Determination of Cell Viability in RAS Mutant Cancer Cell Lines
Protocol: CellTiter-Glo® Cell Viability Assay
Note—The following protocol describes a procedure for monitoring cell viability of K-Ras mutant cancer cell lines in response to a compound of the invention. Other RAS isoforms may be employed, though the number of cells to be seeded will vary based on cell line used.
The purpose of this cellular assay was to determine the effects of test compounds on the proliferation of three human cancer cell lines (NCI-H358 (K-Ras G12C), AsPC-1 (K-Ras G12D), and Capan-1 (K-Ras G12V)) over a 5-day treatment period by quantifying the amount of ATP present at endpoint using the CellTiter-Glo® 2.0 Reagent (Promega).
Cells were seeded at 250 cells/well in 40 μL of growth medium in 384-well assay plates and incubated overnight in a humidified atmosphere of 5% CO2 at 37° C. On the day of the assay, 10 mM stock solutions of test compounds were first diluted into 3 mM solutions with 100% DMSO. Well-mixed compound solutions (15 μL) were transferred to the next wells containing 30 μL of 100% DMSO, and repeated until a 9-concentration 3-fold serial dilution was made (starting assay concentration of 10 μM). Test compounds (132.5 nL) were directly dispensed into the assay plates containing cells. The plates were shaken for 15 seconds at 300 rpm, centrifuged, and incubated in a humidified atmosphere of 5% CO2 at 37° C. for 5 days. On day 5, assay plates and their contents were equilibrated to room temperature for approximately 30 minutes. CellTiter-Glo® 2.0 Reagent (25 μL) was added, and plate contents were mixed for 2 minutes on an orbital shaker before incubation at room temperature for 10 minutes. Luminescence was measured using the PerkinElmer Enspire. Data were normalized by the following: (Sample signal/Avg. DMSO)*100. The data were fit using a four-parameter logistic fit.

SW1573 = conditions: Canon et al., Nature 575:217-223 (2019); cited from earlier work
[1] = ester bond; 18-membered ring; EDCI/HOBT/DIPEA; DCM; 6.8 mM

Chain of K-Ras G13C (P01116 1-188 isoform P01116-2 G13C): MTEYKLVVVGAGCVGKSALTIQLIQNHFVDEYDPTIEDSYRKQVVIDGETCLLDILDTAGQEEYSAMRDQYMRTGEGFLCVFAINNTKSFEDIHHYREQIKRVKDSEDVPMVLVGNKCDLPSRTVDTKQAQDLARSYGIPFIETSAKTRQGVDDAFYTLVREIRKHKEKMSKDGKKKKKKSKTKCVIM
Chain of K-Ras G13C (P62937 whole entry): as the sequence (P62937 whole entry) above

For `CCn1c(-c2cccnc2[C@H](C)OC)c2c3cc(ccc31)-c1cccc(c1)C[C@H](NC(=O)[C@@H](COC1CN(C(=O)C#CC(C)(C)N(C)C)C1)N(C)C)C(=O)N1CCC[C@H](N1)C(=O)OCC(C)(C)C2` (atropisomer, axis not shown) [Example A169], the IC50 (K-Ras G13C) was > 1500 nM.

In the case of `CCn1c(-c2cccnc2[C@H](C)OC)c2c3cc(ccc31)N1CCS[C@@H](C[C@H](NC(=O)[C@@H](COC3CN(C(=O)C#CC(C)(C)N(C)C)C3)N(C)C)C(=O)N3CCC[C@H](N3)C(=O)OCC(C)(C)C2)C1` (atropisomer, axis not shown) [Example A171], the IC50 (K-Ras G13C) is reported as > 1500 nM.

In the case of `CCn1c(-c2cccnc2[C@H](C)OC)c2c3cc(ccc31)N1CCS[C@@H](C[C@H](NC(=O)[C@@H](COC3CN(C(=O)C#CC(C)(C)N(C)C)C3)C(C)C)C(=O)N3CCC[C@H](N3)C(=O)OCC(C)(C)C2)C1` (atropisomer, axis not shown) [Example A175], the IC50 (K-Ras G13C) is reported as > 1500 nM.

For `C=CC(=O)N1CCOC2(CCN(C(=O)N(C)[C@H](C(=O)N[C@H]3Cc4nccc(n4)-c4ccc5c(c4)c(c(-c4cccnc4[C@H](C)OC)n5CC)CC(C)(C)COC(=O)[C@@H]4CCCN(N4)C3=O)C(C)C)CC2)C1` (atropisomer, axis not shown) [Example A191], the IC50 (K-Ras G12C) was > 1000 nM and the IC50 (NCI-H358 (K-Ras G12C)) was > 1000 nM.

For `CCn1c(-c2cccnc2[C@H](C)OC)c2c3cc(ccc31)C1=CCCN(C1)C[C@H](NC(=O)[C@H](C(C)C)N(C)C(=O)N1CCC3(CCN(C(=O)/C=C/CN(C)C)C3)CC1)C(=O)N1CCC[C@H](N1)C(=O)OCC(C)(C)C2` (atropisomer, axis not shown) [Example A192], the IC50 (K-Ras G12C) was > 1000 nM and the IC50 (NCI-H358 (K-Ras G12C)) was > 1000 nM.

In the case of `C=CC(=O)N1CCN(c2nc(=O)n(-c3c(C)ccnc3C(C)C)c3nc(-c4c(O)cccc4F)c(F)cc23)[C@@H](C)C1` [AMG510], the “sensitivity of cell line SW1573” value (SW1573) is given as “insensitive”.

Molecule “tert-butyl ((6^3S,4S,Z)-1^1-ethyl-1^2-(2-((S)-1-methoxyethyl)pyridin-3-yl)-10,10-dimethyl-5,7-dioxo-6^1,6^2,6^3,6^4,6^5,6^6-hexahydro-1^1H-8-oxa-2(5,3)-oxadiazola-1(5,3)-indola-6(1,3)-pyridazinacycloundecaphane-4-yl)carbamate” has a ring closure, isolated yield [1] of 18%.

Reference: patent publication US20230106174A1, “RAS INHIBITORS” (Revolution Medicines, Inc., priority 2021, published 2023)
